Source: patent US11293870B2, “Vital stain” (Mie University, priority 2013, dated 2022)
Entries after “also recorded” stand apart in the source; their conditions may differ. Where two headings read alike, the source gives them in different places.

Tests used:
[1] = cited from earlier work
[2] = tested on: epithelial cells/adenocytes and connective tissue/capillaries; assay: Preferential staining of epithelial cells/adenocytes or connective tissue/capillaries; format: in vivo, mouse; conditions: 5 mg/ml for curcumin, 1 mg/ml for all other dyes
Protocol: A metal ring (outer diameter: 16 millimeters, inner diameter, 6 millimeters) was placed on a laboratory stage, and a rapid bonding adhesive (AronAlpha) was coated over the entire periphery of the ring surface on one side. Forceps were used to hold the rapid bonding adhesive-coated metal ring with the adhesive-coated surface facing downward, and it was set on the pronase-treated mucosal surface. During a period of about 5 minutes, the metal ring became anchored to the mucosa with the rapid bonding adhesive, and the region where the dye compound was to be applied was rinsed with PBS.
In order to avoid drying of the mucosal surface, a curcumin stock solution or sulfuretin stock solution diluted with physiological saline (PBS) (see Tables 1 to 3 for the dilution factors) was added dropwise onto the pronase-treated mucosal surface, and after allowing it to stand for 1 minute, it was rinsed 3 times with PBS, a cover glass was placed over the metal ring, and the objective lens of a multiphoton laser microscope (FV1000 MPE by Olympus Corp.) was brought near to the top of the cover glass for image observation.
The procedure from administration of the dye compound to observation was conducted as described above under “Evaluation of stainability” (same hereunder). Also, the administered concentration of dye to the mucosal surface was 5 mg/ml for curcumin as Dye No. 1, and 1 mg/ml for all of the other dyes.

[3] = tested on: MDCK-GFP-Ras^V12 cells mixed with MDCK normal cells; assay: In vitro assay of MDCK-Ras^V12 cancerized cell small aggregates as a very early cancer model; format: cell-based, canine; conditions: for Staining of GFP-Ras^V12 positive cancerized cells versus MDCK normal cells: Ministry of Health, Labour and Welfare-approved food additives, 1 mg/ml, excitation 750, 800, 850, 900 nm, red fluorescence
Protocol: The MDCK normal cells were cultured in a 10 cm dish, and the MDCK-GFP-Ras^V12 cells were cultured in a 6 cm dish. The culture solution used for the MDCK normal cells was DMEM (containing Phenol Red)+10% FBS+penicillin/streptomycin.
The solution used for the MDCK-GFP-Ras^V12 cells was DMEM (containing Phenol Red)+10% FBS+penicillin/streptomycin+Zeocin (400 μg/ml)+blasticidin (5 μg/ml). […] The seeding was carried out using a DMEM+10% FBS+penicillin/streptomycin culture solution, to 1.0 to 3.0×10^4 cells per well of the 96-well dish. Tetracycline at a concentration of 2 μg/ml was added to the culture solution after 4 days when seeding was to 1.0×10^4 or after 1 day when seeding was to 3.0×10^4, and GFP-Ras^V12 was expressed, forming cancerized cell small aggregates among the MDCK normal cells (NPL 3). After 18 to 36 hours, the cells in each of the wells were rinsed 3 times with 200 μl of PBS, and then the Prestwick Chemical Library compounds and the Ministry of Health, Labour and Welfare-approved food additives, each diluted to 1 μM with a 100 μl volume of PBS, were added to the respective wells and taken up by the cells for 5 minutes at room temperature. They were then rinsed 3 times with 200 μl of PBS, and in certain cases further rinsed once with 100 μl of DMEM without Phenol Red, and observed under a multiphoton laser microscope.

[4] = tested on: cancer lesion site versus normal mucosa of large intestine; assay: Comparison of staining patterns in normal site and cancer tumor site of large intestine; format: in vivo, mouse; conditions: for Staining of cancer lesion sites compared with normal mucosa: Example 1, regardless of pronase treatment of the mucosal surface; for Staining of cancer lesion site compared with normal mucosa: Example 3
Protocol: Drinking water containing 2% (w/v) dextran sodium sulfate (DSS) was given to 8-week-old C57B6 mice (male, approximately 20 g) for 7 days. After intraperitoneal injection of 0.2 ml of 5% chloral hydrate for anesthesia, the mouse abdominal wall was incised vertically to about 1 cm, and the gastrointestinal tract was raised over the abdominal wall to about 1 cm. Blood flow to the gastrointestinal tract was maintained during this time by the blood vessel flowing into the mesenteric attachment site. The gastrointestinal tract was incised vertically to about 1 cm on the opposite side of the mesenteric attachment site, including the tunica muscularis and mucosa. The opposite side of the mesenteric attachment site was incised in order to prevent severance and damage of the blood vessel and minimize bleeding. When the incision site of the gastrointestinal tract was opened vertically, the mucosal surface of the gastrointestinal tract, as the food channel, became visible. When food digestion products were present they were wiped off with tissue paper. In order to more clearly observe the gastrointestinal tract mucosal surface, a 1% pronase solution was dropped onto the mucosal surface and was allowed to stand still for 15 minutes. This pronase treatment removed the mucus from the mucosal surface, rendering the cell structure more easily visible. Next, the pronase was removed from the mucosal surface and rinsed with physiological saline (PBS). A metal ring (outer diameter: 16 millimeters, inner diameter, 6 millimeters) was placed on a laboratory stage, and a rapid bonding adhesive (AronAlpha) was coated over the entire periphery of the surface on one side. Forceps were used to hold the rapid bonding adhesive-coated metal ring with the adhesive-coated surface facing downward, and it was set on the pronase-treated mucosal surface. During a period of about 5 minutes, the metal ring became anchored to the mucosa with the rapid bonding adhesive, and the region where the dye compound was to be applied was rinsed with PBS. […] FIG. 32 is a drawing for illustration of a stainability evaluation step for the aforementioned dye compounds. […] Z stack image). […] Both of the staining photographs of the normal site and cancer tumor site were taken under the same conditions.

[5] = cited from earlier work; remark: listed apart in the source
Pluripotent hepatocytes = assay: Undifferentiated cell staining of pluripotent hepatocytes; format: cell-based
Excerpt: Pluripotent stem cells such as iPS cells, ES cells or tissue-derived stem cells are considered promising for application and development in regenerative medicine, and for example, when a cell population is to be formed from iPS cells, differentiated into tissue cells that are destined to be transplanted, it is currently the case that iPS cell-derived differentiation-induced tissue cell populations partially contain undifferentiated cells that have not completely differentiated to the desired tissue cells, cells that have differentiated to cells other than the desired tissue cells, and the original iPS cells that have undergone essentially no differentiation. It has been pointed out that when such undifferentiated cells or original iPS cells are transplanted as is into the body, they can potentially become cancerated in the future. Thus, when an iPS cell-derived differentiation-induced tissue cell population is to be used for transplantation, undifferentiated cells or original iPS cells remaining in the transplanted cell population are preferably identified and confirmed, and also eliminated.

Large intestine = assay: Evaluation of dye compound stainability under multiphoton laser microscope, large intestine mucosal surface; format: in vivo; conditions: mucosal surface of mouse large intestine; 5 mg/ml for curcumin, 1 mg/ml for other dyes
Protocol: Drinking water containing 2% (w/v) dextran sodium sulfate (DSS) was given to 8-week-old C57B6 mice (male, approximately 20 g) for 7 days. After intraperitoneal injection of 0.2 ml of 5% chloral hydrate for anesthesia, the mouse abdominal wall was incised vertically to about 1 cm, and the gastrointestinal tract was raised over the abdominal wall to about 1 cm. Blood flow to the gastrointestinal tract was maintained during this time by the blood vessel flowing into the mesenteric attachment site. The gastrointestinal tract was incised vertically to about 1 cm on opposite side of the mesenteric attachment site, including the tunica muscularis and mucosa. The opposite side of the mesenteric attachment site was incised in order to prevent severance and damage of the blood vessel and minimize bleeding. When the incision site of the gastrointestinal tract was opened vertically, the mucosal surface of the gastrointestinal tract, as the food channel, became visible. When food digestion products were present they were wiped off with tissue paper.
In order to more clearly observe the gastrointestinal tract mucosal surface, a 1% pronase solution was dropped onto the mucosal surface and was allowed to stand still for 15 minutes. This pronase treatment removed the mucus from the mucosal surface, rendering the cell structure more easily visible. […]

mucosal surfaces = assay: Photon dose necessary to obtain fluorescent images of dye-coated mucosal surfaces; format: in vivo, mouse; conditions: mucosal surfaces coated with dye
[6] = tested on: mouse bladder epithelial cells; assay: Multiphoton laser microscope imaging of stained bladder epithelial cells; conditions: laser power of 3%
[7] = tested on: mouse tracheal epithelial cells; assay: Multiphoton laser microscope imaging of stained tracheal epithelial cells; conditions: laser power of 3%
[8] = tested on: human gastric mucosa (normal site and stomach cancer site); assay: Staining of surgically excised fresh human gastric mucosa; conditions: laser power of 1%
Excerpt: Similar staining also occurred with surgically excised fresh human gastric mucosa. […] The centers of the circular structures are the exits of the fundic glands. It was thus possible to confirm the characteristic of normal tissue whereby epithelial cells arrange in a circular manner without disparate sizes. […] The blackened elliptical portions in each cell are the nuclei.

[9] = without pronase treatment, cancer 2 to 4 millimeters in diameter

## Oc1cc(O)c2cc(O)c(-c3ccc(O)c(O)c3)[o+]c2c1 [Cyanidin]
[1]; rat, in vivo
  LD50: 1500 mg/kg

## Oc1cc(O)c2cc(O)c(-c3cc(O)c(O)c(O)c3)[o+]c2c1 [Delphinidin]
[1]; rat, in vivo
  LD50: 1250 mg/kg

## CCN(Cc1cccc(S(=O)(=O)[O-])c1)c1ccc(C(=C2C=CC(=[N+](CC)Cc3cccc(S(=O)(=O)[O-])c3)C=C2)c2ccc(O)cc2S(=O)(=O)[O-])cc1.[Na+].[Na+] [Green #3, Fast Green FCF]
[2]
  Cell group preferentially stained (epithelial cells/adenocytes or connective tissue/capillaries): some adenocytes and connective tissue/capillaries were strongly stained
[1]; Rat, Oral
  LD50: >2000 mg/kg
[3]
  Staining of GFP-Ras^V12 positive cancerized cells versus MDCK normal cells: labeled GFP-Ras^V12-positive cancerized cell small aggregates more intensely than normal cells; also recorded: specific staining of cancer cells

## O=C1OC2(c3ccccc31)c1cc(I)c(O)c(I)c1Oc1c2cc(I)c(O)c1I [Red #3, erythrosine]
[2]
  Cell group preferentially stained (epithelial cells/adenocytes or connective tissue/capillaries): preferentially stained epithelial cells/adenocytes
[4]
  Staining of cancer lesion sites compared with normal mucosa: stained cancer lesion sites much more intensely than normal mucosa
[3]
  Staining of GFP-Ras^V12 positive cancerized cells versus MDCK normal cells: GFP-Ras^V12 positive cells were preferentially stained
[3]; listed as erythrosine
  Staining of GFP-Ras^V12 positive cancerized cells versus MDCK normal cells: labeled GFP-Ras^V12-positive cancerized cell small aggregates more intensely than normal cells
[5]; mouse, in vivo, po
  LD50: 6800 mg/kg

## O=C([O-])c1c(Cl)c(Cl)c(Cl)c(Cl)c1-c1c2cc(Br)c(=O)c(Br)c-2oc2c(Br)c([O-])c(Br)cc12.[Na+].[Na+] [Red #104, phloxine]
[2]
  Cell group preferentially stained (epithelial cells/adenocytes or connective tissue/capillaries): preferentially stained epithelial cells/adenocytes
Pluripotent hepatocytes
  Staining of pluripotent hepatocytes: exhibit undifferentiated cell staining
[3]; FIG. 19
  Cancer cell staining intensity relative to normal cell staining intensity: 6.7 times
[3]
  Staining of GFP-Ras^V12 positive cancerized cells versus MDCK normal cells: labeled GFP-Ras^V12-positive cancerized cell small aggregates more intensely than normal cells; also recorded: All GFP-Ras^V12 positive cells stained with Red #104
[5]; Mouse, Intra-abdominal
  LD50: 310 mg/kg

## O=C1/C(=C/c2ccc(O)c(O)c2)Oc2cc(O)ccc21 [Sulfuretin]
[2]
  Cell group preferentially stained (epithelial cells/adenocytes or connective tissue/capillaries): intensely stained epithelial cells/adenocytes and faintly stained connective tissue/capillaries
Large intestine
  Excitation by multiphoton laser and brightness of image: strongly excited by a multiphoton laser and provided bright images
[4]
  Staining of cancer lesion sites compared with normal mucosa: stained cancer lesion sites much more intensely than normal mucosa
[4]; [9]
  Staining of cancer lesion site compared with normal mucosa: stained the cancer lesion site significantly more intensely than the normal mucosa
[5]; mouse, in vivo, po
  LD50: 300 mg/kg
Mucosal surfaces
  Photon dose necessary to obtain fluorescent images compared to non-staining: 4%

## COc1cc(/C=C/C(=O)CC(=O)/C=C/c2ccc(O)c(OC)c2)ccc1O [curcumin]
[6]
  Image quality of stained cells: an image with sufficient brightness and contrast for diagnosis was obtained
[2]
  Cell group preferentially stained (epithelial cells/adenocytes or connective tissue/capillaries): intensely stained epithelial cells/adenocytes and faintly stained connective tissue/capillaries
Large intestine
  Excitation by multiphoton laser and brightness of image: strongly excited by a multiphoton laser and provided bright images
[4]
  Staining of cancer lesion sites compared with normal mucosa: stained cancer lesion sites much more intensely than normal mucosa
[4]; after 15 minutes treatment with 1% pronase MS
  Staining of cancer lesion site compared with normal mucosa: stained the cancer lesion site significantly more intensely than the normal mucosa
[4]; [9]
  Staining of cancer lesion site compared with normal mucosa: stained the cancer lesion site significantly more intensely than the normal mucosa
[7]
  Image quality of stained cells: an image with sufficient brightness and contrast for diagnosis was obtained
[8]
  Staining of normal gastric mucosa site: the circularly arranged normal epithelial cells are stained
  Staining of stomach cancer site: cancer cells are stained
Mucosal surfaces
  Photon dose necessary to obtain fluorescent images compared to non-staining: 3%

## CC1=C(/C=C/C(C)=C/C=C/C(C)=C/C=C/C=C(C)/C=C/C=C(C)/C=C/C2=C(C)CCCC2(C)C)C(C)(C)CCC1 [β-Carotene]
[2]
  Cell group preferentially stained (epithelial cells/adenocytes or connective tissue/capillaries): preferentially stained epithelial cells/adenocytes
[1]; Rat, Oral
  LD50: 5000 mg/kg
